The results in this text go back to patent US20240024291A1, “Uses of Dihydroorotate Dehydrogenase Inhibitors” (University of Maryland, Baltimore, priority 2022, published 2024).

As a reminder, the IC50 is the concentration that inhibits the measured activity by half.

Data set [1] relates to 3691 glioblastoma neurosphere line. Description: CellTiter-Glo in vitro proliferation assay. The data set is classed as cell-based. To be noted: Homo sapiens, 72 h, 3691 (table prints 3639). The protocol: (§1) A Biospherix X3, hypoxic incubation system, was maintained at 37° C., 1% 02, 5% CO2, and 94% N2 (Biospherix, Ltd—Parish, NY) to conduct in vitro hypoxic experiments. Cells were plated, then incubated in normoxia overnight before transferring the culture dishes to hypoxia for the duration indicated in the main text.
(§2) Glioblastoma neurosphere lines were plated in 96-well plates at 25,000 cells per well in […] of media and treated with compound 1 in the presence or absence of 100 μM uridine. Cell Titer-Glo® Luminescent Cell Viability Assay (Promega, Madison, WI, USA) was performed 72 hours after treatment. Luminescence was determined using a Cytation 5 reader and Gen5 software package (BioTek, Winooski, VT, USA).
(§3) The compound's efficacy was examined against a collection of genetically diverse patient-derived GSC lines in vitro. The IC50 profiles of compound 1 in the seven GSC lines tested were established using the CellTiter-Glo® reagent and calculated with GraphPad software.

The subject of data set [2] is Mayo6 glioblastoma neurosphere line. Kind of data set: CellTiter-Glo in vitro proliferation assay. The data set is classed as cell-based. To be noted: Homo sapiens. The method, then: as §1, §2, §3
Background: Cellular ATP, detected with luciferase, serves as a proxy for viable cell number.

Data set [3] has as its system 913 PIP-FUCCI reporter cells. Description: PIP-FUCCI in vitro cell cycle assay. It counts as cell-based, human. To be noted: for percentage of cells in the S phase: 48 hours (DMSO 20%). The protocol: To monitor cell cycle progression, 913 glioblastoma neurosphere-derived cells expressing pLenti-PGK-Neo-PIP-FUCCI were first cloned. pLenti-PGK-Neo-PIP-FUCCI was from Jean Cook (Addgene plasmid #118616; n2t.net/addgene:118616; RRID:Addgene_118616) (52). Cells were then treated with either 0, 10 nM, or 100 nM compound 1 for 48 hours, stained with 1 mg/mL Hoechst for 2 hours, and visualized by direct fluorescence microscopy. A twenty-four-hour treatment with […] of the DNA replication inhibitor Aphidicolin was used as a positive control for S-phase arrest. A collection of five images per well, each set containing at least 10,000 cells, was captured for each treatment. Each treatment was performed in technical quadruplicates, and each experiment was repeated twice on different days. Images were acquired using Cytation 5 plate reader (BioTek, Winooski, VT, USA) and scored using Gen5 software. Cell cycle phases were determined by x/y plot of mVenus and mCherry intensities per nucleus and gating boundaries on the Aphidicolin control.
It has been reported that depletion of pyrimidine nucleotides leads to incomplete DNA replication and elicits a stress response that blocks cell cycle progression. […] The original design was developed in 2008 by Miyawaki and colleagues (51).

Data set [4] deals with 08-387 orthotopic xenografts. Kind of data set: Orthotopic glioblastoma xenograft, drug treatment. It counts as in vivo. The method, then:
(§4) Experiments with animals were performed in compliance with institutional guidelines and regulations. Four- to six-week-old male and female NCG mice (NOD-Prkdcem26Cd52112rgem26Cd22/NjuCrl, Charles River Laboratory, Wilmington, MA) were used in all experiments in approximately equal numbers of each sex in each experimental group. The 08-387 m-Cherry Luciferase or 913 Luciferase expressing cells (1×10 5) were stereotactically injected into the right striatum as previously described (30). Two weeks after the injection of the cells, tumor growth was monitored with bioluminescence imaging using an IVIS Spectrum imaging system equipped with the Living Image software package (Perkin Elmer). Male and female mice harboring orthotopic xenografts with Radiance (p/sec/cm2/sr) equal to or greater than 1x10 6 were randomly assigned to the control or compound 1 treatment groups. Mice were dosed daily by oral gavage with either vehicle (90/10 Kollisolv® PEG400/EtOH solution) or 3 mg/kg compound 1. Animal weight was monitored daily, and mice were sacrificed when they became symptomatic.
(§5) To generate equivalent treatment groups and facilitate the tracking of xenograft growth, these cells were transduced with a mCherry:Luciferase reporter. An equal number of male and female immunodeficient mice were injected, and overall survival was the primary endpoint. Mice were imaged weekly starting two weeks after the injection and then randomized to the two treatment groups when tumor Radiance surpassed 1x10 6 photons/sec/cm^2/sr (sr=units of solid angle or steradian). Compound 1 (3 mg/kg) or vehicle were delivered daily by oral gavage.

For data set [5], the system named is 913 orthotopic xenografts. Kind of data set: Orthotopic glioblastoma xenograft, drug treatment. It counts as in vivo. The protocol: as §4, §5

The structures appear in SMILES notation.

As for `CCn1c(CO)nn(-c2cc(O[C@@H](C)C(F)(F)F)c(C(=O)Nc3c(F)cccc3Cl)cc2F)c1=O` [Compound 1, N-(2-chloro-6-fluorophenyl)-4-[4-ethyl-4,5-dihydro-3-(hydroxymethyl)-5-oxo-1H-1,2,4-triazol-1-yl]-5-fluoro-2-[(1S)-2,2,2-trifluoro-1-methylethoxy]-benzamide], the IC50 is 0.0122 µM in data set [1] (hypoxia); 0.0074 µM in data set [1] (normoxia); 228 µM in data set [2] (72 h, Mayo6, hypoxia); 164 µM in data set [2] (72 h, Mayo6, normoxia); 164 µM in data set [2] (Mayo6). Further, the results for the “percentage of cells in the S phase” value in data set [3] (10 nM) and in data set [3] (100 nM) were 70% and 64%, respectively. Also, the “cell cycle effects with uridine supplementation” value in data set [3] (uridine supplementation) is listed as “completely blocked”. For the same compound, the “tumor radiance compared to controls” value in data set [4] (08-387, week 1, 3 mg/kg daily oral) is recorded as “roughly the same”. The “tumor radiance lower compared to controls” value came to 47% in data set [4] (08-387, week 2, 3 mg/kg daily oral) and 75% in data set [4] (08-387, week 3, 3 mg/kg daily oral). Also, the “body weight / tolerability” value in data set [4] (08-387 xenograft mice, 3 mg/kg daily oral gavage) is “no significant weight loss”; in data set [5] (913 xenograft mice, 3 mg/kg daily oral gavage), “no significant weight loss”. In addition, the “median survival from initiation of treatment” value came out at 19 days in data set [4] (08-387 xenografts, 3 mg/kg daily oral (vehicle 12 days)) and 41 days in data set [5] (913 xenografts, 3 mg/kg daily oral (vehicle 32 days)). Besides, the “increase in median survival” value amounted to 58% in data set [4] (08-387 xenografts, vs vehicle) and 28% in data set [5] (913 xenografts, vs vehicle). The “tumor radiance lower than in vehicle controls” value in data set [5] (913, week 1, 3 mg/kg daily oral) worked out at 6.5%; in data set [5] (913, week 2, 3 mg/kg daily oral), 41%; in data set [5] (913, week 3, 3 mg/kg daily oral), 52%.
